Test results published in ChEMBL document CHEMBL5212743, “Selectivity Literature for EUbOPEN Chemogenomics Library wave 3” (2023).

How the values were obtained:
[1] = target: Tyrosine-protein kinase ABL1 (Homo sapiens, UniProt P00519, T315I); test: Selectivity interaction (Enzymatic assay) EUB0000178b ABL1
[2] = target: Mitogen-activated protein kinase kinase kinase 2 (Homo sapiens) (UniProt Q9Y2U5); test: Selectivity interaction (KinomeScan (DiscoverX)) EUB0000178b MAP3K2; conditions: at 1 µM
[3] = target: Receptor-type tyrosine-protein kinase FLT3 (Homo sapiens) (UniProt P36888); conditions: at 1 µM
[4] = target: Serine/threonine-protein kinase 10 (Homo sapiens) (UniProt O94804); conditions: at 1 µM
[5] = target: Mitogen-activated protein kinase kinase kinase kinase 5 (Homo sapiens) (UniProt Q9Y4K4); conditions: at 1 µM
[6] = target: Ribosomal protein S6 kinase alpha-6 (Homo sapiens) (UniProt Q9UK32); test: Selectivity interaction (KinomeScan (DiscoverX)) EUB0000702a RPS6KA6; conditions: at 1 µM
[7] = target: T1, Serine/threonine-protein kinase ULK2 (Homo sapiens) (UniProt Q8IYT8); test: Selectivity interaction (KinomeScan (DiscoverX)) EUB0000702a ULK2; conditions: at 1 µM
T1 sequence (whole entry): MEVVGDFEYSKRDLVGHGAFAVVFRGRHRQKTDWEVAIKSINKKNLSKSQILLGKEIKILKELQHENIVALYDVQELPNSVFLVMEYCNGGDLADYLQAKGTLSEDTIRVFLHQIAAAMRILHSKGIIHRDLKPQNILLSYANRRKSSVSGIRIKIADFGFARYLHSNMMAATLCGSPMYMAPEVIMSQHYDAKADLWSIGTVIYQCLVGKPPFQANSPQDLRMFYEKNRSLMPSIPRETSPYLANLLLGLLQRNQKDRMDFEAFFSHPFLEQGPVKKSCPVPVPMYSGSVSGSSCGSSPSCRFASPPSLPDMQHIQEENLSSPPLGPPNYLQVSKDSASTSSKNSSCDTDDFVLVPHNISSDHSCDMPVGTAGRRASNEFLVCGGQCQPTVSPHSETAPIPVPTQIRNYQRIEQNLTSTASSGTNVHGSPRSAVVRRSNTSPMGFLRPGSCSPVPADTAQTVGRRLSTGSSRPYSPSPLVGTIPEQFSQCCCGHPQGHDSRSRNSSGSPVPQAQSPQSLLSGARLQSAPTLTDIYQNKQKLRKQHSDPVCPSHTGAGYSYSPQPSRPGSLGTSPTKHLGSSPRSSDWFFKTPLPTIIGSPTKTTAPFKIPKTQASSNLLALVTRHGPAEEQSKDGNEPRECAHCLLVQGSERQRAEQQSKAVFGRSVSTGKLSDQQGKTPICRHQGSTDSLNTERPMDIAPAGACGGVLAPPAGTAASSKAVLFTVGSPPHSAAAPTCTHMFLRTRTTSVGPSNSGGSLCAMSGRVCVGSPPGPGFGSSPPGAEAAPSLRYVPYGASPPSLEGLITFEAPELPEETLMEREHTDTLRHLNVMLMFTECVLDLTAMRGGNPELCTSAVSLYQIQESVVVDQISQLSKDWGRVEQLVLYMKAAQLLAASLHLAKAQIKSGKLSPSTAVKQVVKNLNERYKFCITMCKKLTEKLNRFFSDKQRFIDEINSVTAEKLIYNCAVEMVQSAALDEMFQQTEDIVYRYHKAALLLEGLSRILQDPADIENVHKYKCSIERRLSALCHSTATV

[8] = target: T2, Receptor-interacting serine/threonine-protein kinase 4 (Homo sapiens) (UniProt P57078); test: Selectivity interaction (KinomeScan (DiscoverX)) EUB0000702a RIPK4; conditions: at 1 µM
T2 sequence (whole entry): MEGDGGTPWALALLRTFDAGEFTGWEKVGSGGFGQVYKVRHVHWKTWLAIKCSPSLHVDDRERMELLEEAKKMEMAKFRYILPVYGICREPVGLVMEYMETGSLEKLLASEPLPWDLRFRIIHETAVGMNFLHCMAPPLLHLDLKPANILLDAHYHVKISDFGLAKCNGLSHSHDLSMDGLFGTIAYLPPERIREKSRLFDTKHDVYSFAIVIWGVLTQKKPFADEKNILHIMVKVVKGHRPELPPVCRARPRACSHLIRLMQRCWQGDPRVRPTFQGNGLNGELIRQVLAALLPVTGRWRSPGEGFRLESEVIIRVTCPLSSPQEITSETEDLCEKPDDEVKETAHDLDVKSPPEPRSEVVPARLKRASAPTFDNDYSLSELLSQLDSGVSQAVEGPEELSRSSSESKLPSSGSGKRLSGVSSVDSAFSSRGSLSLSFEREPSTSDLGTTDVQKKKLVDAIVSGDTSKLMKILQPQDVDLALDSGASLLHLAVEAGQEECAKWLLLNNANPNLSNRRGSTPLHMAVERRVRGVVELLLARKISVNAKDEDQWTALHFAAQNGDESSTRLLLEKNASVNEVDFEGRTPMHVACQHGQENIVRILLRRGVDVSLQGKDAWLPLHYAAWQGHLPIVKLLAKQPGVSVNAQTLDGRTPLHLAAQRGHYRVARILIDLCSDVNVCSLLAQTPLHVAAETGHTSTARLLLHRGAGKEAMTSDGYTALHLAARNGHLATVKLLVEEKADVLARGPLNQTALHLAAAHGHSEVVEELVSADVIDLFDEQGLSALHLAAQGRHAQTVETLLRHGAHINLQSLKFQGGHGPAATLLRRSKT

[9] = target: Serine/threonine-protein kinase 17A (Homo sapiens, UniProt Q9UEE5); test: Selectivity interaction (KinomeScan (DiscoverX, competition-binding assay)) EUB0000305b STK17A
[10] = target: T3, Dual specificity mitogen-activated protein kinase kinase 5 (Homo sapiens, UniProt Q13163); test: Selectivity interaction (Enzymatic assay) EUB0000305b MAP2K5
T3 sequence (Q13163 whole entry): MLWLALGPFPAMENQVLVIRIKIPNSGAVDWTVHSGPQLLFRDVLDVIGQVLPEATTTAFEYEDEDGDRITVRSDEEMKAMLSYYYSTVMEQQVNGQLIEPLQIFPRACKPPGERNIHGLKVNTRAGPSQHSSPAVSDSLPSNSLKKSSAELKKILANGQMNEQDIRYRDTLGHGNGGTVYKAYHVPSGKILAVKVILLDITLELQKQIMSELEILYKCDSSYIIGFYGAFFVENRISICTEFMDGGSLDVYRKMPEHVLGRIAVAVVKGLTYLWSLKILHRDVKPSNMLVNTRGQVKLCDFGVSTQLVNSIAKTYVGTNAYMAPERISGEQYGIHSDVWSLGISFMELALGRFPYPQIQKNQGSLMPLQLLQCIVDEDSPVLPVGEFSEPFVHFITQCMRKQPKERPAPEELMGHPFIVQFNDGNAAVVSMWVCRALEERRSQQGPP

[11] = target: Calcium/calmodulin-dependent protein kinase kinase 1 (Homo sapiens) (UniProt Q8N5S9); test: Selectivity interaction (KinomeScan (DiscoverX)) EUB0000169b CAMKK1; conditions: at 1 µM
[12] = target: Ribosomal protein S6 kinase alpha-4 (Homo sapiens) (UniProt O75676); test: Selectivity interaction (KinomeScan (DiscoverX)) EUB0000169b RPS6KA4; conditions: at 1 µM
Ribosomal protein S6 kinase alpha-4 (Homo sapiens), sequence (O75676 whole entry, looked up): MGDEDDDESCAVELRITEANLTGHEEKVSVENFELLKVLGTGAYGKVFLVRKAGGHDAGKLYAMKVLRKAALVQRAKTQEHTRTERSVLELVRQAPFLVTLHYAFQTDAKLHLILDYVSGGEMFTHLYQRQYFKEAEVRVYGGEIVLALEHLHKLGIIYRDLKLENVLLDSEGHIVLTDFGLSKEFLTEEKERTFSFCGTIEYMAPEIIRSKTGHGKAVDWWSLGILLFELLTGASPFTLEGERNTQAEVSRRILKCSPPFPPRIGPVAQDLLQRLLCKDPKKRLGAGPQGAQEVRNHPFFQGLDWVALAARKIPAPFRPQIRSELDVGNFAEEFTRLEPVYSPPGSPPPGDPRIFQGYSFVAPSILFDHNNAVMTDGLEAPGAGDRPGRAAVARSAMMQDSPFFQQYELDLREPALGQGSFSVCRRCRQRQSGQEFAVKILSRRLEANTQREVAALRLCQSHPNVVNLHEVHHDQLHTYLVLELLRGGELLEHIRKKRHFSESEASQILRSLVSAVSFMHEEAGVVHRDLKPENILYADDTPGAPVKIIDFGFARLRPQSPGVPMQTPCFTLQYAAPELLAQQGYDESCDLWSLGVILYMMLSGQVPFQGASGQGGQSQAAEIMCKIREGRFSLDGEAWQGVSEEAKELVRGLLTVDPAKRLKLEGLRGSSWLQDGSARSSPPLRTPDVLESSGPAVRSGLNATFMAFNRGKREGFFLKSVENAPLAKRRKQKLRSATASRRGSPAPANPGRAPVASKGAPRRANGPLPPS

Calcium/calmodulin-dependent protein kinase kinase 1 (Homo sapiens), sequence (Q8N5S9 whole entry, looked up): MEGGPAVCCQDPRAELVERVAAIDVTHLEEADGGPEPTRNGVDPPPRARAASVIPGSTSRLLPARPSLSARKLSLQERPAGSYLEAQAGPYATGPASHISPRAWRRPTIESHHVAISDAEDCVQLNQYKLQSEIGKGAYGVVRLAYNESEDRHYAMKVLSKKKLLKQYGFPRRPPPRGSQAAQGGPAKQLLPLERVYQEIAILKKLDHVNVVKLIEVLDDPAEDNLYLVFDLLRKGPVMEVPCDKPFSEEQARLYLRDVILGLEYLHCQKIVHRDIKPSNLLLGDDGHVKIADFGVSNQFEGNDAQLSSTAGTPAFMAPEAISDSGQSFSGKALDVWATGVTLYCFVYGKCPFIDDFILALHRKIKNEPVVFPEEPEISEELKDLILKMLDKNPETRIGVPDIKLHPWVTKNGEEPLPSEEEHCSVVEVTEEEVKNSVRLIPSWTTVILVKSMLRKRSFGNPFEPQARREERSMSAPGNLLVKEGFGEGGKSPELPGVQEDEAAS
Receptor-type tyrosine-protein kinase FLT3 (Homo sapiens), sequence (P36888 whole entry): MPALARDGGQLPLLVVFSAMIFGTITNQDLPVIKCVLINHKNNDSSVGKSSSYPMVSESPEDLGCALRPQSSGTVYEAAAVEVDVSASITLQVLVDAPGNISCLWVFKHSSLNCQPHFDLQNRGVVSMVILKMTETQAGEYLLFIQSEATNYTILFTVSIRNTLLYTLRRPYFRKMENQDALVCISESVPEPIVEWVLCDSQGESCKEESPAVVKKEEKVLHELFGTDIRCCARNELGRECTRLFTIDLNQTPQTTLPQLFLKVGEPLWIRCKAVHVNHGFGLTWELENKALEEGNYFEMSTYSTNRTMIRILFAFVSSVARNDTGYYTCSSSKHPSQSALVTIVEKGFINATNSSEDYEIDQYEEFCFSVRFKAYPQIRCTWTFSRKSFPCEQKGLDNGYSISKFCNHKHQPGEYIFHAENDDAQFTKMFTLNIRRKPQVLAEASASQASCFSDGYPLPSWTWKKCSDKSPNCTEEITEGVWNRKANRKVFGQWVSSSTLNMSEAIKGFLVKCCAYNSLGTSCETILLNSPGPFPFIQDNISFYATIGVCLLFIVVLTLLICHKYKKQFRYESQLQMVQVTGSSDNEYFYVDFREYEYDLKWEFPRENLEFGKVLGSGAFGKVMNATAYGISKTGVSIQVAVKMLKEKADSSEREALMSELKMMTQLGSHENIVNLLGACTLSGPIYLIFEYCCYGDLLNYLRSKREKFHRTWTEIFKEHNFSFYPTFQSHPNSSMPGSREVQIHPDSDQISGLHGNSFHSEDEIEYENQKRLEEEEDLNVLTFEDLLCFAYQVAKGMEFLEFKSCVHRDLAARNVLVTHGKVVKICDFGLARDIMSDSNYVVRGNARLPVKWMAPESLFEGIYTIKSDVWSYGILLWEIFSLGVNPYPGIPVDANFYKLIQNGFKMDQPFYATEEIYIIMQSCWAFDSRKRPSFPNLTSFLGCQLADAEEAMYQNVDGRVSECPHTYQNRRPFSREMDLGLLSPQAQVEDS
Ribosomal protein S6 kinase alpha-6 (Homo sapiens), sequence (Q9UK32 whole entry): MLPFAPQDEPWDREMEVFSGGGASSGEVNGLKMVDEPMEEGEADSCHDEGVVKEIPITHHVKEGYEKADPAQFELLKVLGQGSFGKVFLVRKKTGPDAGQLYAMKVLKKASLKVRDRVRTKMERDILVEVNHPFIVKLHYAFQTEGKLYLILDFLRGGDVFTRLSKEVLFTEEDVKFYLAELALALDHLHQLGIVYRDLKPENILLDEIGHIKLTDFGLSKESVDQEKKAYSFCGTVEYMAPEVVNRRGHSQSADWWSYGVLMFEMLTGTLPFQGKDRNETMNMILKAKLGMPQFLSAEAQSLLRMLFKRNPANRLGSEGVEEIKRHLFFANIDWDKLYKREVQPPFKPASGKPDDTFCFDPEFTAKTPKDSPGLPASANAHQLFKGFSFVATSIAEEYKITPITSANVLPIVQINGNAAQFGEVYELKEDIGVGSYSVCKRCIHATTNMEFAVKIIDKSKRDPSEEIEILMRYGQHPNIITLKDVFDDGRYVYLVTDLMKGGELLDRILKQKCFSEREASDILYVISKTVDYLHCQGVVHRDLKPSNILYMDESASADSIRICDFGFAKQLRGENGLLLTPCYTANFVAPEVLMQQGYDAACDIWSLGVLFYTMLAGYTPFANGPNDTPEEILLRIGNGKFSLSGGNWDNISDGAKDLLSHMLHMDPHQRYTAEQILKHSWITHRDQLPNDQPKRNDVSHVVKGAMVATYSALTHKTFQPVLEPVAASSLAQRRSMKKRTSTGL
Mitogen-activated protein kinase kinase kinase 2 (Homo sapiens), sequence (Q9Y2U5 whole entry): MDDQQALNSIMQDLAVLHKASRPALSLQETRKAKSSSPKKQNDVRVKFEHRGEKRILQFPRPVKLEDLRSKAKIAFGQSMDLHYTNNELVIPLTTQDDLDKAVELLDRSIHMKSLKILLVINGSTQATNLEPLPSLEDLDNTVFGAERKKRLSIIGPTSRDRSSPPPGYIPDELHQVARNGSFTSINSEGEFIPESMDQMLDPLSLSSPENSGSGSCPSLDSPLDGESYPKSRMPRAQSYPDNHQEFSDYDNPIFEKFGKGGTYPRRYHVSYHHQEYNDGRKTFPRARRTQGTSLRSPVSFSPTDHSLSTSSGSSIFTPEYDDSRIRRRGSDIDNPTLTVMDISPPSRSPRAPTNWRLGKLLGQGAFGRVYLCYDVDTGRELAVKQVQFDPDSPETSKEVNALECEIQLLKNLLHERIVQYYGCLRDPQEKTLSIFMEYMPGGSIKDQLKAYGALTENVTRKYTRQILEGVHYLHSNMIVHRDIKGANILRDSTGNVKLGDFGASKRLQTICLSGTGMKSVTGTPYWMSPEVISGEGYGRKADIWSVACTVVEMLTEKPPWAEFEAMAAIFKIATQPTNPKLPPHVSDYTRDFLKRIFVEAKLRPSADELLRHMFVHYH
Serine/threonine-protein kinase 10 (Homo sapiens), sequence (O94804 whole entry, looked up): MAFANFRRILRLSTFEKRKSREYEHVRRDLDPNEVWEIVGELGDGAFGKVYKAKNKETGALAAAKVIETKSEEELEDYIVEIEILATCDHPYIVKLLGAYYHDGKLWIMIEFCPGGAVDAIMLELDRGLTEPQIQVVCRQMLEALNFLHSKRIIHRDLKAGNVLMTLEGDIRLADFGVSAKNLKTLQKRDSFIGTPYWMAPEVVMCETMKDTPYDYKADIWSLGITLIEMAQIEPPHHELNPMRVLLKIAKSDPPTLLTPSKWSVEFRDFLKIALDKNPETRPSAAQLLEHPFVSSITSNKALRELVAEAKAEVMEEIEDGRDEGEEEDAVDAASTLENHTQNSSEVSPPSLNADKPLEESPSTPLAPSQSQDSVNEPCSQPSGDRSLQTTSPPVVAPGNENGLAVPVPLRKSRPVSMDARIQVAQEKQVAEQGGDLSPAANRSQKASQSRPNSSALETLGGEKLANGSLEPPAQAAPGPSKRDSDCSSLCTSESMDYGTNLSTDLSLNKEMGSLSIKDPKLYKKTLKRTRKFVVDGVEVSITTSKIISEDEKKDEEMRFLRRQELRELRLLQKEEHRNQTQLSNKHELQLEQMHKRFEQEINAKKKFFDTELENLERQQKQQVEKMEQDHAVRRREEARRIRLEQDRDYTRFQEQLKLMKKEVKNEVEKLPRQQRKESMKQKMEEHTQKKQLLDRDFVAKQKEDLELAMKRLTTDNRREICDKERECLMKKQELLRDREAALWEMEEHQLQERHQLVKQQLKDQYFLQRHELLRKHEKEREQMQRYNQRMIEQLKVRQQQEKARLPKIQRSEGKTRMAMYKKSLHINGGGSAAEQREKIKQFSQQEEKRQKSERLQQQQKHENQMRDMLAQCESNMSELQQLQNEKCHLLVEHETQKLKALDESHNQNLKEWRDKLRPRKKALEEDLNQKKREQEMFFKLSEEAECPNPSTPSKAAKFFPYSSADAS
Serine/threonine-protein kinase 17A, sequence (Q9UEE5 whole entry): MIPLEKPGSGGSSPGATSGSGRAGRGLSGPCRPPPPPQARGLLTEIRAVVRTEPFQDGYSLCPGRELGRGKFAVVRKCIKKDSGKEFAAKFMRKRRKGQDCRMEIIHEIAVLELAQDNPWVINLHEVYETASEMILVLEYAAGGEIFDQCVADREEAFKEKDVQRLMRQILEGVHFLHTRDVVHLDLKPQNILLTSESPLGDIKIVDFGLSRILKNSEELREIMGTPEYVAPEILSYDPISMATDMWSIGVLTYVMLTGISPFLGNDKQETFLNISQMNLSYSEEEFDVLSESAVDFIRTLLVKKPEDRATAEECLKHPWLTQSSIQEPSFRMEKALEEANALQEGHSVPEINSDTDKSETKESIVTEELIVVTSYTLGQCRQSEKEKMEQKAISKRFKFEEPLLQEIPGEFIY

With `CN1C(=O)c2sccc2N(C)c2nc(Nc3ccc(S(N)(=O)=O)cc3)ncc21` the IC50 [1] was 16.6 nM and the % of control [2] was 2.6%.

For `CCOc1cn(-c2ccc(F)cc2C)nc1C(=O)Nc1ccc(Oc2ccnc3cc(OC)c(OC)cc23)c(F)c1`, the % of control [3] was < 10%, the % of control [4] was < 10% and the % of control [5] was < 10%.

For `CN(c1ccnc(CNc2nc(Nc3ccc4c(c3)CC(=O)N4)ncc2C(F)(F)F)n1)S(C)(=O)=O` [PF-00911705], the % of control [6] was 4.6%, the % of control [7] was 5.4% and the % of control [8] was 6%.

Compound `C[C@H](c1ccnc(Nc2nc3ccc(-c4cc(N(C)C)ncn4)cc3[nH]2)c1)N1CCN(C(=O)CC(F)(F)F)CC1` [BAY-985] has a Kd [9] of 74 nM and an IC50 [10] of 847 nM.

Compound `CC[C@@H]1C(=O)N(C)c2cnc(Nc3ccc(C(=O)NC4CCN(C)CC4)cc3OC)nc2N1C1CCCC1` has a % of control [11] of 3.7% and a % of control [12] of 0.3%.
